Source: patent publication US6479533B1, “Methods and compositions for the protection of mitochondria” (priority 1997, dated 2002)

Columns and labels:
Assay type in all cases: cell-based
[1] = test system: mitochondrial membranes in mouse keratinocytes; experiment: JC-1 assay (fluorescence microscopy) after alloxan
Procedure: Mouse keratinocytes were pretreated with L-ergothioneine (unencapsulated) at 1 mM and then treated with 8 mM alloxan. One day after treatment with L-ergothioneine, the cells were treated for 10 minutes with JC-I and the cells examined by fluorescence microscopy.
The JC-1 assay makes use of the fluorescent dye JC-1 (5,5′, 6,6′-tetrachloro-1, 1′, 3,3′-tetrathylbenzimidazolecarbocyanine iodide) (Molecular Probes Inc., Eugene, OR). This dye immediately and specifically intercalates into mitochondrial membranes. In living, charged membranes the JC-1 dye is maintained in the membrane as a […], and fluoresces green. When the mitochondrial membrane is damaged, aggregation of the JC-1 dye into J-1 aggregates occurs and the fluorescence changes to orange. Orange coloration is then characteristic of mitochondrial membrane damage.

[2] = test system: mitochondria in mouse keratinocytes; experiment: MTT assay after alloxan exposure
Description: (§1) This assay measures the specific activity of mitochondria to cleave the tetrazolium ring of the soluble dye MTT [3-(4,5-dimethylthiazol-2-yl)-2,5-diphenyl tetrazolium bromide] to form the insoluble blue formazan form. Living mitochondria metabolize MTT and make the blue formazan; dead mitochondria immediately stop forming blue formazan. In the MTT assay, mammalian cells are pretreated with L-ergothioneine and then treated with the mitochondrial damaging agent, in this example UV-B. MTT is then added and the formation of the blue dye is measured spectrophotometrically.
Mouse keratinocytes were pretreated with various concentrations of L-ergothioneine (unencapsulated) and then exposed to alloxan at various concentrations.
The effect of alloxan on the pretreated mitochondria was determined by the MTT assay as in Example 1.
Table 2 provides the percent optical densities of the formazan blue present relative to unexposed (control) mitochondria in cells for various alloxan concentrations, and L-ergothioneine concentrations.

[3] = test system: mitochondria in mouse keratinocytes; experiment: MTT assay after UV-B irradiation
Description: Mouse keratinocytes were pretreated with different concentrations of L-ergothioneine (unencapsulated) and then exposed to ultraviolet B radiation (UV-B), the shorter wavelength range of UV light present in sunlight which is responsible for significant photodamage to the skin. The light was generated by a FS20 sunlamp filtered with 2 sheets of Kodacel to eliminate light having a wavelength less than 280 nm.
as §1
Table I provides the percent optical density of the formazan blue present relative to unexposed (control) mitochondria in cells for various UV-B levels, expressed as joules per square meter, and L-ergothioneine concentrations.
Mouse keratinocytes were pretreated with L-ergothioneine, both unencapsulated and encapsulated in liposomes (prepared as described below), at a final concentration of 12.5 μM. A control group was not treated with L-ergothioneine. The mouse keratinocytes were then exposed to UV-B as in Example I.
The L-ergothioneine was encapsulated into liposomes composed of phosphatidyl choline, phosphatidyl ethanolamine, oleic acid and cholesteryl hemisuccinate in a ratio of 2:2:1:5. To calculate the concentration of entrapped L-ergothioneine, the liposomes are extracted with chloroform, and the OD258 is measured in the aqueous layer. The concentration of L-ergothioneine is calculated using the ε258 of L-ergothioneine of 14,500. The final concentration of L-ergothioneine in the purified liposome was about 1.1 mM. […] Unencapsulated L-ergothioneine was adjusted to the same concentration by dilution.
The effect of the UV-B on the pretreated and untreated mitochondria was determined by the MTT assay as in Example 1.
Table 3 provides the percent optical density of the formazan blue present in each case relative to unexposed (control) mitochondria in cells for various UV-B levels.

C[N+](C)(C)[C@@H](Cc1c[nH]c(=S)[nH]1)C(=O)[O-] [L-ergothioneine]
JC-1 fluorescence colour (orange = mitochondrial membrane damage) ([1]; 1 mM L-ergothioneine alone, no alloxan): green fluorescence | JC-1 fluorescence colour (orange = mitochondrial membrane damage) ([1]; 1 mM L-ergothioneine pretreatment, then 8 mM alloxan): much less orange than cells treated with alloxani alone | percent optical density of formazan blue relative to unexposed (control) mitochondria ([2]; 0.1 mM L-ergothioneine, alloxan 0 mM): 100.0% | percent optical density of formazan blue relative to unexposed (control) mitochondria ([2]; 0.1 mM L-ergothioneine, alloxan 0.625 mM): 86.3% | percent optical density of formazan blue relative to unexposed (control) mitochondria ([2]; 0.1 mM L-ergothioneine, alloxan 1.25 mM): 80.8% | percent optical density of formazan blue relative to unexposed (control) mitochondria ([2]; 0.1 mM L-ergothioneine, alloxan 2.5 mM): 81.1% | percent optical density of formazan blue relative to unexposed (control) mitochondria ([2]; 0.1 mM L-ergothioneine, alloxan 5 mM): 73.3% | percent optical density of formazan blue relative to unexposed (control) mitochondria ([2]; 0.1 mM L-ergothioneine, alloxan 10 mM): 74.9% | percent optical density of formazan blue relative to unexposed (control) mitochondria ([2]; 0.1 mM L-ergothioneine, alloxan 20 mM): 79.1% | percent optical density of formazan blue relative to unexposed (control) mitochondria ([2]; 0.5 mM L-ergothioneine, alloxan 0 mM): 100.0% | percent optical density of formazan blue relative to unexposed (control) mitochondria ([2]; 0.5 mM L-ergothioneine, alloxan 0.625 mM): 88.3% | percent optical density of formazan blue relative to unexposed (control) mitochondria ([2]; 0.5 mM L-ergothioneine, alloxan 1.25 mM): 81.0% | percent optical density of formazan blue relative to unexposed (control) mitochondria ([2]; 0.5 mM L-ergothioneine, alloxan 2.5 mM): 81.0% | percent optical density of formazan blue relative to unexposed (control) mitochondria ([2]; 0.5 mM L-ergothioneine, alloxan 5 mM): 73.3% | percent optical density of formazan blue relative to unexposed (control) mitochondria ([2]; 0.5 mM L-ergothioneine, alloxan 10 mM): 74.1% | percent optical density of formazan blue relative to unexposed (control) mitochondria ([2]; 0.5 mM L-ergothioneine, alloxan 20 mM): 78.4% | percent optical density of formazan blue relative to unexposed (control) mitochondria ([2]; 0.5 mM L-ergothioneine, alloxan 40 mM): 72.3% | percent optical density of formazan blue relative to unexposed (control) mitochondria ([2]; 1 mM L-ergothioneine, alloxan 0 mM): 100.0% | percent optical density of formazan blue relative to unexposed (control) mitochondria ([2]; 1 mM L-ergothioneine, alloxan 0.625 mM): 91.2% | percent optical density of formazan blue relative to unexposed (control) mitochondria ([2]; 1 mM L-ergothioneine, alloxan 1.25 mM): 86.5% | percent optical density of formazan blue relative to unexposed (control) mitochondria ([2]; 1 mM L-ergothioneine, alloxan 2.5 mM): 82.9% | percent optical density of formazan blue relative to unexposed (control) mitochondria ([2]; 1 mM L-ergothioneine, alloxan 10 mM): 68.5% | percent optical density of formazan blue relative to unexposed (control) mitochondria ([2]; 1 mM L-ergothioneine, alloxan 20 mM): 72.7% | percent optical density of formazan blue relative to unexposed (control) mitochondria ([2]; 1 mM L-ergothioneine, alloxan 40 mM): 66.6% | protection from oxidative damage by alloxan ([2]; dose-responsive portion of the curve (alloxan up to 5 mM)): afforded protection from oxidative damage | protection of mitochondria from UV-B damage ([3]; 12.5 μM, UV-B 100 and 500 J/m^2): significant but not complete protection | percent optical density of formazan blue relative to unexposed (control) mitochondria ([3]; 0.1 mM L-ergothioneine, UV-B 0 J/m^2): 100.0% | percent optical density of formazan blue relative to unexposed (control) mitochondria ([3]; 0.1 mM L-ergothioneine, UV-B 100 J/m^2): 95.7% | percent optical density of formazan blue relative to unexposed (control) mitochondria ([3]; 0.1 mM L-ergothioneine, UV-B 200 J/m^2): 97.0% | percent optical density of formazan blue relative to unexposed (control) mitochondria ([3]; 0.1 mM L-ergothioneine, UV-B 500 J/m^2): 91.0% | percent optical density of formazan blue relative to unexposed (control) mitochondria ([3]; 0.5 mM L-ergothioneine, UV-B 100 J/m^2): 97.2% | percent optical density of formazan blue relative to unexposed (control) mitochondria ([3]; 0.5 mM L-ergothioneine, UV-B 200 J/m^2): 99.4% | percent optical density of formazan blue relative to unexposed (control) mitochondria ([3]; 0.5 mM L-ergothioneine, UV-B 500 J/m^2): 90.8% | percent optical density of formazan blue relative to unexposed (control) mitochondria ([3]; 1 mM L-ergothioneine, UV-B 0 J/m^2): 100.0% | percent optical density of formazan blue relative to unexposed (control) mitochondria ([3]; 1 mM L-ergothioneine, UV-B 100 J/m^2): 97.1% | percent optical density of formazan blue relative to unexposed (control) mitochondria ([3]; 1 mM L-ergothioneine, UV-B 200 J/m^2): 103.9% | percent optical density of formazan blue relative to unexposed (control) mitochondria ([3]; 1 mM L-ergothioneine, UV-B 500 J/m^2): 96.0% | mitochondrial viability ([3]; UV-B 100 and 200 J/m^2, all three levels of L-ergothioneine (0.1, 0.5, 1 mM)): greater than 95% | protection of mitochondria ([3]; highest UV-B dose (500 J/m^2)): still protected the mitochondria | percent optical density of formazan blue relative to unexposed (control) mitochondria ([3]; unencapsulated, 12.5 μM, UV-B 0 J/m^2): 100.0% | percent optical density of formazan blue relative to unexposed (control) mitochondria ([3]; unencapsulated, 12.5 μM, UV-B 100 J/m^2): 89.9% | percent optical density of formazan blue relative to unexposed (control) mitochondria ([3]; unencapsulated, 12.5 μM, UV-B 500 J/m^2): 89.9% | concentration at which active (protection from UV-B) ([3]; unencapsulated, UV-B 100 and 500 J/m^2): ≤ 12.5 µM
